Data from patent US8455475B2 (Gruenenthal GmbH, priority 2009, dated 2013).

How the values were obtained:
[1] = target: T1, human B1R (bradykinin receptor 1) (Homo sapiens, UniProt P46663); test: FLIPR Ca2+ assay (Fluo-4) on CHO K1 cells stably transfected with the human B1R gene (hB1R cells): % inhibition at 10 μM / IC50, agonist Lys-Des-Arg9-bradykinin; assay type: cell-based; conditions: for inhibition at 10 µM: CHO-K1, human B1R
T1 construct: expressed in transfected cells; host or cells: CHO K1 cells
T1 sequence (P46663 1-353): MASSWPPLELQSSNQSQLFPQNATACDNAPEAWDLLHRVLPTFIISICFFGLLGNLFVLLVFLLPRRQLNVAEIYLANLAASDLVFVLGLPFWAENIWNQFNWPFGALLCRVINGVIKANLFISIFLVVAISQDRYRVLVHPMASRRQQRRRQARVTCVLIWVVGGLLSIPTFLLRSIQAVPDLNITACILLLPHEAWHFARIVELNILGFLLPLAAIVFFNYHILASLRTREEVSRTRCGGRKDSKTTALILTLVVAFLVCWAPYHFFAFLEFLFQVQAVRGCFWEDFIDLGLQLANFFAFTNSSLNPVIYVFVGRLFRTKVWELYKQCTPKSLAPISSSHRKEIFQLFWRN
Method in brief: (§1)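 Peak fluorescence counts read on FLIPR (λex 488, λem 540 nm) after two additions: compound first, then agonist at EC80 after 10–20 min. Human line challenged with Lys-Des-Arg9-bradykinin, rat line with Des-Arg9-bradykinin. Suppression of Ca2+ inflow expressed as % of maximum inhibition.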

[2] = target: T2, rat B1R (bradykinin receptor 1) (Rattus norvegicus, UniProt P97583); test: FLIPR Ca2+ assay (Fluo-4) on CHO K1 cells stably transfected with the B1R gene of the rat (rB1R cells): % inhibition at 10 μM / IC50, agonist Des-Arg9-bradykinin; assay type: cell-based; conditions: for inhibition at 10 µM: CHO-K1, rat B1R
T2 construct: expressed in transfected cells; host or cells: CHO K1 cells
T2 sequence (P97583 1-337): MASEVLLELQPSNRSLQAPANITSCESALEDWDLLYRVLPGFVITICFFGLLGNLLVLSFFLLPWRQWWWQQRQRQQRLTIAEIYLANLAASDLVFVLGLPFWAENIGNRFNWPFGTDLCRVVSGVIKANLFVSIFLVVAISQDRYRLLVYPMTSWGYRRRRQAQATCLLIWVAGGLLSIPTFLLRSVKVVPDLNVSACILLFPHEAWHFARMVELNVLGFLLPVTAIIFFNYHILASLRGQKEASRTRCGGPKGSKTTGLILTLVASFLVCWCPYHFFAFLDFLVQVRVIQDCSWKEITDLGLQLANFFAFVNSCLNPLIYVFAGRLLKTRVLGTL
Method in brief: as §1

SMILES | inhibition at 10 µM [1] [%] | inhibition at 10 µM [2] [%] | % Inhibition (human B1R) at 10 μM [1] [%] | % Inhibition (rat B1R) at 10 μM [2] [%] | % Inhibition (human B1R) at 10 μM ([1]; 10 µM) [%]
Cc1ccc(F)c(C(=O)NC2CCc3ccc(C(=O)N4CCC5(CCN(c6ccncc6)CC5)C4)cc32)c1Cl (stereo not shown) [IND_CC-249, 2-Chloro-6-fluoro-3-methyl-N-[6-(8-pyridin-4-yl-2,8-diazaspiro[4.5]decane-2-carbonyl)-2,3-dihydro-1H-inden-1-yl]-benzamide] | 99 | 99 | – | – | –
CC1(C)CC(NC(=O)c2cc(C(F)(F)F)ccc2Cl)c2cc(C(=O)N3CCC4(CC3)CCN(c3ccncc3)CC4)ccc21 (stereo not shown) [IND_CC-250, 2-Chloro-N-[3,3-dimethyl-6-(3-pyridin-4-yl-3,9-diazaspiro[5.5]undecane-9-carbonyl)-1,2-dihydro-inden-1-yl]-5-(trifluoromethyl)-benzamide] | 94 | 100 | – | – | –
O=C(NC1CCc2ccc(C(=O)N3CCC4(CCN(c5ccncc5)CC4)C3)cc21)c1cc(C(F)(F)F)ccc1Cl (stereo not shown) [IND_CC-251, 2-Chloro-N-[6-(8-pyridin-4-yl-2,8-diazaspiro[4.5]decane-2-carbonyl)-2,3-dihydro-1H-inden-1-yl]-5-(trifluoromethyl)-benzamide] | 100 | 99 | – | – | –
CC1(C)CC(NC(=O)c2cc(F)ccc2Cl)c2cc(C(=O)N3CCC4(CC3)CCN(c3ccncc3)CC4)ccc21 (stereo not shown) [IND_CC-252, 2-Chloro-N-[3,3-dimethyl-6-(3-pyridin-4-yl-3,9-diazaspiro[5.5]undecane-9-carbonyl)-1,2-dihydro-inden-1-yl]-5-fluoro-benzamide] | 100 | 102 | – | – | –
O=C(NC1CCc2ccc(C(=O)N3CCC4(CCN(c5ccncc5)CC4)C3)cc21)c1cc(F)ccc1Cl (stereo not shown) [IND_CC-253, 2-Chloro-5-fluoro-N-[6-(8-pyridin-4-yl-2,8-diazaspiro[4.5]decane-2-carbonyl)-2,3-dihydro-1H-inden-1-yl]-benzamide] | 100 | 100 | – | – | –
CC1(C)CC(NC(=O)c2cccc(C(F)(F)F)c2Cl)c2cc(C(=O)N3CCC4(CC3)CCN(c3ccncc3)CC4)ccc21 (stereo not shown) [IND_CC-254, 2-Chloro-N-[3,3-dimethyl-6-(3-pyridin-4-yl-3,9-diazaspiro[5.5]undecane-9-carbonyl)-1,2-dihydro-inden-1-yl]-3-(trifluoromethyl)-benzamide] | 97 | 105 | – | – | –
O=C(NC1CCc2ccc(C(=O)N3CCC4(CCN(c5ccncc5)CC4)C3)cc21)c1cccc(C(F)(F)F)c1Cl (stereo not shown) [IND_CC-255, 2-Chloro-N-[6-(8-pyridin-4-yl-2,8-diazaspiro[4.5]decane-2-carbonyl)-2,3-dihydro-1H-inden-1-yl]-3-(trifluoromethyl)-benzamide] | 100 | 100 | – | – | –
CC1(C)CC(NS(=O)(=O)Cc2ccccc2C(F)(F)F)c2cc(C(=O)N3CCC4(CC3)CCN(c3ccncc3)CC4)ccc21 (stereo not shown) [IND_CC-256, N-[3,3-Dimethyl-6-(3-pyridin-4-yl-3,9-diazaspiro[5.5]undecane-9-carbonyl)-1,2-dihydro-inden-1-yl]-1-[2-(trifluoromethyl)-phenyl]-methanesulfonic acid amide] | 99 | 100 | – | – | –
O=C(c1ccc2c(c1)C(NS(=O)(=O)Cc1ccccc1C(F)(F)F)CC2)N1CCC2(CCN(c3ccncc3)CC2)C1 (stereo not shown) [IND_CC-258, N-[6-(8-Pyridin-4-yl-2,8-diazaspiro[4.5]decane-2-carbonyl)-2,3-dihydro-1H-inden-1-yl]-1-[2-(trifluoromethyl)-phenyl]-methanesulfonic acid amide] | 100 | 95 | – | – | –
Cc1cccc(Cl)c1S(=O)(=O)NC1CC(C)(C)c2ccc(C(=O)N3CCC4(CC3)CCN(c3ccncc3)CC4)cc21 (stereo not shown) [IND_CC-259, 2-Chloro-N-[3,3-dimethyl-6-(3-pyridin-4-yl-3,9-diazaspiro[5.5]undecane-9-carbonyl)-1,2-dihydro-inden-1-yl]-6-methyl-benzenesulfonic acid amide] | 99 | 100 | – | – | –
CC1(C)CC(NS(=O)(=O)CCc2ccccc2Cl)c2cc(C(=O)N3CCC4(CC3)CCN(c3ccncc3)CC4)ccc21 (stereo not shown) [IND_CC-260, 2-(2-Chlorophenyl)-N-[3,3-dimethyl-6-(3-pyridin-4-yl-3,9-diazaspiro[5.5]-undecane-9-carbonyl)-1,2-dihydro-inden-1-yl]-ethanesulfonic acid amide] | 100 | 100 | – | – | –
CN(C(=O)c1ccc(F)cc1Cl)C1CCc2ccc(C(=O)N3CCC4(CC3)CCN(c3ccncc3)CC4)cc21 (stereo not shown) [IND_CC-261, 2-Chloro-4-fluoro-N-methyl-N-[6-(9-pyridin-4-yl-3,9-diazaspiro[5.5]undecane-3-carbonyl)-2,3-dihydro-1H-inden-1-yl]-benzamide] | 100 | 103 | – | – | –
O=C(NC1CCc2ccc(C(=O)N3CCC4(CC3)CCN(c3ccncc3)CC4)cc21)c1ccc(F)cc1Cl (stereo not shown) [IND_CC-262, 2-Chloro-4-fluoro-N-[6-(9-pyridin-4-yl-3,9-diazaspiro[5.5]undecane-3-carbonyl)-2,3-dihydro-1H-inden-1-yl]-benzamide] | 100 | 105 | – | – | –
O=C(NC1CCc2ccc(C(=O)N3CCC4(CC3)CCN(c3ccncc3)C4)cc21)c1ccc(F)cc1Cl (stereo not shown) [IND_CC-263, 2-Chloro-4-fluoro-N-[6-(2-pyridin-4-yl-2,8-diazaspiro[4.5]decane-8-carbonyl)-2,3-dihydro-1H-inden-1-yl]-benzamide] | 100 | 81 | – | – | –
O=C(NC1CCc2ccc(C(=O)N3CCC4(CC3)CCN(c3ccncc3)C4)cc21)c1c(F)cccc1Cl (stereo not shown) [IND_CC-264, 2-Chloro-6-fluoro-N-[6-(2-pyridin-4-yl-2,8-diazaspiro[4.5]decane-8-carbonyl)-2,3-dihydro-1H-inden-1-yl]-benzamide] | 97 | 106 | – | – | –
CN(C(=O)c1cccc(Cl)c1Cl)C1CCc2ccc(C(=O)N3CCC4(CC3)CCN(c3ccncc3)CC4)cc21 (stereo not shown) [IND_CC-265, 2,3-Dichloro-N-methyl-N-[6-(9-pyridin-4-yl-3,9-diazaspiro[5.5]undecane-3-carbonyl)-2,3-dihydro-1H-inden-1-yl]-benzamide] | 88 | 107 | – | – | –
O=C(NC1CCc2ccc(C(=O)N3CCC4(CC3)CCN(c3ccncc3)CC4)cc21)c1cccc(Cl)c1Cl (stereo not shown) [IND_CC-266, 2,3-Dichloro-N-[6-(9-pyridin-4-yl-3,9-diazaspiro[5.5]undecane-3-carbonyl)-2,3-dihydro-1H-inden-1-yl]-benzamide] | 98 | 106 | – | – | –
O=C(NC1CCc2ccc(C(=O)N3CCC4(CC3)CCN(c3ccncc3)C4)cc21)c1cccc(Cl)c1Cl (stereo not shown) [IND_CC-267, 2,3-Dichloro-N-[6-(2-pyridin-4-yl-2,8-diazaspiro[4.5]decane-8-carbonyl)-2,3-dihydro-1H-inden-1-yl]-benzamide] | 86 | 106 | – | – | –
CN(C(=O)c1c(Cl)cccc1Cl)C1CCc2ccc(C(=O)N3CCC4(CC3)CCN(c3ccncc3)CC4)cc21 (stereo not shown) [IND_CC-268, 2,6-Dichloro-N-methyl-N-[6-(9-pyridin-4-yl-3,9-diazaspiro[5.5]undecane-3-carbonyl)-2,3-dihydro-1H-inden-1-yl]-benzamide] | 99 | 108 | – | – | –
O=C(NC1CCc2ccc(C(=O)N3CCC4(CC3)CCN(c3ccncc3)CC4)cc21)c1c(Cl)cccc1Cl (stereo not shown) [IND_CC-269, 2,6-Dichloro-N-[6-(9-pyridin-4-yl-3,9-diazaspiro[5.5]undecane-3-carbonyl)-2,3-dihydro-1H-inden-1-yl]-benzamide] | 100 | 107 | – | – | –
O=C(NC1CCc2ccc(C(=O)N3CCC4(CC3)CCN(c3ccncc3)C4)cc21)c1c(Cl)cccc1Cl (stereo not shown) [IND_CC-270, 2,6-Dichloro-N-[6-(2-pyridin-4-yl-2,8-diazaspiro[4.5]decane-8-carbonyl)-2,3-dihydro-1H-inden-1-yl]-benzamide] | 100 | 108 | – | – | –
O=C(NC1CCc2ccc(C(=O)N3CCC4(CC3)CCN(c3ccncc3)C4)cc21)c1ccccc1Cl (stereo not shown) [IND_CC-271, 2-Chloro-N-[6-(2-pyridin-4-yl-2,8-diazaspiro[4.5]decane-8-carbonyl)-2,3-dihydro-1H-inden-1-yl]-benzamide] | – | – | 100 | 106 | –
CN(C(=O)c1ccccc1Cl)C1CCc2ccc(C(=O)N3CCC4(CC3)CCN(c3ccncc3)CC4)cc21 (stereo not shown) [IND_CC-272, 2-Chloro-N-methyl-N-[6-(9-pyridin-4-yl-3,9-diazaspiro[5.5]undecane-3-carbonyl)-2,3-dihydro-1H-inden-1-yl]-benzamide] | – | – | – | 107 | 99
